This is an account of results in patent US20220315578A1, “BRD9 BIFUNCTIONAL DEGRADERS AND THEIR METHODS OF USE” (NOVARTIS AG, priority 2019, published 2022).

In general, DC50 refers to the midpoint of the concentration-degradation curve. Read a low DC50 as a more potent degrader.

The experiment deals with T1, BRD9-GFP (Homo sapiens, UniProt Q9H8M2).
T1 construct: CHYSEL (2A cis-acting hydrolase element) remnant after GFP; mCherry is split off as a separate protein (C); expressed in transfected cells; host or cells: HEK293A cells (Invitrogen R70507), lentiviral transduction with pLenti6-BRD9-GFP-CHYSEL-mCherry, blasticidin selection
T1 sequence (Q9H8M2 1-597): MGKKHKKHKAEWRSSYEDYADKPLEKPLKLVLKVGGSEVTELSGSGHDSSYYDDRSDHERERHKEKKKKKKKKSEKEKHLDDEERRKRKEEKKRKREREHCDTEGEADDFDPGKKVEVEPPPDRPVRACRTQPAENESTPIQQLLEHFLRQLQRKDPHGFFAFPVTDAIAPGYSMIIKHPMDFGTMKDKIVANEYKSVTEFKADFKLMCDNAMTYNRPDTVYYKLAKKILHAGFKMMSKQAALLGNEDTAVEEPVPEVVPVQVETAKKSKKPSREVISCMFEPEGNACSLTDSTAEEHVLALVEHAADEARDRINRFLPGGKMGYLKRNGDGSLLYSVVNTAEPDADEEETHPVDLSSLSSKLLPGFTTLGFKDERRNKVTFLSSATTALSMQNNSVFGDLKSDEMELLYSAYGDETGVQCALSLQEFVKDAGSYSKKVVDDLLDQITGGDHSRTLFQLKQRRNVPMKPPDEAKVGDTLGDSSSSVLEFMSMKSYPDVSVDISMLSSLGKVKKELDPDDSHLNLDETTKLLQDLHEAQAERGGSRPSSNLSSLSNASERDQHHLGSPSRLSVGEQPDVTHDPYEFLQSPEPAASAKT
Nature of the experiment: BRD9-GFP protein abundance flow cytometry assay in HEK293A cells. It is filed as cell-based. The note with it: HEK293A-BRD9-GFP-CHYSEL-mCherry cells; for BRD9 Deg Amax %: 24 h, % protein remaining at the concentration at which maximum degradation is seen; for DC50: 24 h at 37° C., 10-point 1:3 dilution, concentration at which 50% maximal degradation was observed. On the procedure:
Compounds of the invention were tested in the following cellular assays. The terms in Table 1 are defined as follows: DC50 refers to the concentration at which 50% maximal degradation was observed; deg Amax is the extent of degradation and the value refers to the % protein remaining at the concentration at which maximum degradation is seen.
BRD9-GFP protein abundance flow cytometry assay in HEK293A cells: Degradation of BRD9 was measured in HEK293A cells expressing BRD9-GFP and mCherry from a stably integrated second generation bicistronic BRD9-GFP-CHYSELmCherry construct. Reduction of the GFP signal measured by flow cytometry served as readout for BRD9 degradation after degrader treatment.
The bicistronic BRD9-GFP-CHYSEL-mCherry construct is based on a pLenti6-DEST vector backbone where a GFP-CHYSEL-mCherry cassette was synthesized and inserted downstream of the DEST cassette by Gibson assembly resulting in the new gateway compatible vector pLenti6-DEST-GFP-CHYSEL-mCherry to allow Gateway cloning with pENTR221-BRD9 (w/o ATG) to obtain the final sensor construct pLenti6-BRD9-GFP-CHYSEL-mCherry.
HEK293 Å-BRD9-GFP-CHYSEL-mCherry sensor cells were generated by lentiviral vector transduction using the pLenti6-BRD9-GFP-CHYSEL-mCherry sensor construct described before. […] The mix was incubated for another 20 min at RT and then added to 1 ml of a freshly prepared suspension of HEK293FT cells in a well of a 6-well plate (concentration 1.2×10^6 cells/ml). 1 day after transfection, the medium was replaced with 1.5 ml of complete growth medium (DMEM high Glucose+10% FCS+1% L-Glutamine+1% NEAA+1% NaPyr.). 48 h post transfection supernatant containing viral transducing particles was collected and frozen at −80° C. […] Infection was performed with […] of collected supernatant containing viral transducing particles in 1 ml medium including 8 μg/ml polybrene. 24 h post infection, stably transfected cells were selected with blasticidin at a concentration of 8 μg/ml.
Stable HEK293 Å-BRD9-GFP-CHYSEL-mCherry cells were maintained in complete growth medium (DMEM high Glucose+10% FCS+1% L-Glutamine+1% NEAA+1% NaPyr.) with passaging performed twice per week. On Day 0, HEK293 Å-BRD9-GFP-CHYSEL-mCherry cells were seeded at 10,000 cells/well in a 96-well microtiter plate in […] complete medium. On Day 1, cells were treated in duplicate with 10-point 1:3 dilution series of compound using the HP D300 Digital Dispenser (Tecan). DMSO concentrations were normalized across the plate to 0.1%. On Day 2, after 24 h of incubation at 37° C., treatment media was discarded, cells rinsed with 100 ul/well PBS and then detached using 40 ul trypsin/well for 5 min. Trypsin was neutralized with 100 ul/well PBS+20% FCS). Flow cytometry was performed on the samples using the Beckman Coulter CytoFLEX flow cytometer. Cell identification was then performed using forward (FSC) vs. side scatter (SSC) plots. Single cell discrimination is performed using FSC-Width (FSC-W) vs. FSC-Height (FSC-H) plots. Median GFP/mCherry ratio values for 5,000 single cells are used to determine BRD9 levels. Median GFP/mCherry ratio values from HEK293 Å-mCherry are used as a background signal and thus defining 0% BRD9 signal. Median GFP/mCherry ratio values from DMSO treated HEK293 Å-BRD9-GFP-CHYSEL-mCherry are used to define 100% BRD9 signal for subsequent DC50 curves (concentration at 50% BRD9 degradation). Concentration response curves plotting relative reduction of the GFP/mCherry ratio signal (measured by flow cytometry) versus 10 compound concentrations (starting concentration […], 3 fold dilution steps) of the compounds allowed generation of DC50 values. Data is shown in Tables 2 and 3, in which, DC50 refers to the concentration at which 50% maximal degradation was observed; deg Amax is the extent of degradation and the value refers to the % protein remaining at the concentration at which maximum degradation is seen.

Regarding `CCCCn1cc(-c2cc(OC)c(CCN3CC[C@@H](OC4CCN(C(=O)c5ccc(Cl)c(N6CCC(=O)NC6=O)c5)CC4)[C@H](F)C3)cc2OC)c2ccncc2c1=O` [Compound E47, 1-(5-(4-(((3R,4R)-1-(4-(2-butyl-1-oxo-1,2-dihydro-2,7-naphthyridin-4-yl)-2,5-dimethoxyphenethyl)-3-fluoropiperidin-4-yl)oxy)piperidine-1-carbonyl)-2-chlorophenyl)dihydro-pyrimidine-2,4(1H,3H)-dione], the “BRD9 Deg Amax %” value came out at 32.89% and half-maximal degradation (DC50) was put at 49 nM.
As to `COc1cc(-c2cc(C)c(=O)n(C)c2)ccc1C(=O)N1CCN(CC2CCN(C(=O)c3ccc(OC)c(N4CCC(=O)NC4=O)c3)CC2)CC1` [Compound A3, 1-(5-(4-((4-(4-(1,5-Dimethyl-6-oxo-1,6-dihydropyridin-3-yl)-2-methoxybenzoyl)piperazin-1-yl)methyl)piperidine-1-carbonyl)-2-methoxyphenyl)dihydropyrimidine-24(1H,3H)-dione], the “BRD9 Deg Amax %” value came to 12.29% and the DC50 was determined as 68 nM.
Take `CCCn1cc(-c2ccc(CN3CC[C@@H](OC4CCN(C(=O)c5cccc(N6CCC(=O)NC6=O)c5)CC4)[C@H](F)C3)cc2)c(C)c(C)c1=O` [Compound E5, 1-(3-(4-(((3R,4R)-1-(4-(4,5-dimethyl-6-oxo-1-propyl-1,6-dihydropyridin-3-yl)benzyl)-3-fluoropiperidin-4-yl)oxy)piperidine-1-carbonyl)phenyl)dihydropyrimidine-2,4(1H,3H)-dione]: the “BRD9 Deg Amax %” value is given as 14.46% and it took 5 nM to reach half-maximal degradation (DC50).
Take `CCCn1cc(-c2cc(OC)c(CCN3CCN(CC4CCN(C(=O)c5ccc(Cl)c(N6CCC(=O)NC6=O)c5)CC4)CC3)c(OC)c2)c(C)c(C)c1=O` [Compound E48, 1-(2-chloro-5-(4-((4-(4-(4,5-dimethyl-6-oxo-1-propyl-1,6-dihydropyridin-3-yl)-2,6-dimethoxyphenethyl)piperazin-1-yl)methyl)piperidine-1-carbonyl)phenyl)dihydropyrimidine-2,4(1H,3H)-dione]: the “BRD9 Deg Amax %” value is 15.41% and half-maximal degradation (DC50) was put at 2 nM.
For `COc1cc(-c2cn(C)c(=O)c(C)c2C)c(OC)cc1CN1CCC(OC2CCN(C(=O)c3ccc(Cl)c(N4CCC(=O)NC4=O)c3)CC2)CC1` [Compound A18, 1-(2-Chloro-5-(4-((1-(2,5-dimethoxy-4-(1,4,5-trimethyl-6-oxo-1,6-dihydropyridin-3-yl)benzyl)piperidin-4-yl)oxy)piperidine-1-carbonyl)phenyl)dihydropyrimidine-2,4(1H,3H)-dione], in that order: 11.83% and 15 nM.
As to `COc1cc(-c2cn(C)c(=O)c(C)c2C)cc(OC)c1OCC1CCN(CC2CCN(C(=O)c3ccc(Cl)c(N4CCC(=O)NC4=O)c3)CC2)CC1` [Compound A19, 1-(2-Chloro-5-(4-((4-((2,6-dimethoxy-4-(1,4,5-trimethyl-6-oxo-1,6-dihydropyridin-3-yl)phenoxy)methyl)piperidin-1-yl)methyl)piperidine-1-carbonyl)phenyl)dihydropyrimidine-2,4(1H,3H)-dione], the “BRD9 Deg Amax %” value stood at 17.02% and it took 3 nM to reach half-maximal degradation (DC50).
For `COc1cc(-c2cn(C)c(=O)c(C)c2C)ccc1CN1CCN(CC2CCN(C(=O)c3ccc(OC)c(N4CCC(=O)NC4=O)c3)CC2)CC1` [Compound A13, 1-(2-Methoxy-5-(4-((4-(2-methoxy-4-(1,4,5-trimethyl-6-oxo-1,6-dihydropyridin-3-yl)benzyl)piperazin-1-yl)methyl)piperidine-1-carbonyl)phenyl)dihydropyrimidine-2,4(1H,3H)-dione], in that order: 18.05% and 15 nM.
With `CCCCn1cc(-c2cc(OC)c(OC3CCN(CC4CCN(C(=O)c5ccc(Cl)c(N6CCC(=O)NC6=O)c5)CC4)CC3)c(OC)c2)c2ccncc2c1=O` [Compound B9, 1-(5-(4-((4-(4-(2-butyl-1-oxo-1,2-dihydro-2,7-naphthyridin-4-yl)-2,6-dimethoxyphenoxy)piperidin-1-yl)methyl)piperidine-1-carbonyl)-2-chlorophenyl)dihydropyrimidine-2,4(1H,3H)-dione], the “BRD9 Deg Amax %” value is given as 14.33% and it took 1 nM to reach half-maximal degradation (DC50).
For `CCCCCCn1cc(-c2cc(OC)c(CN3CCC(OC4CCN(C(=O)c5ccc(OC)c(N6CCC(=O)NC6=O)c5)CC4)CC3)c(OC)c2)c2ccncc2c1=O` [Compound E40, 1-(5-(4-((1-(4-(2-Hexyl-1-oxo-1,2-dihydro-2,7-naphthyridin-4-yl)-2,6-dimethoxybenzyl)piperidin-4-yl)oxy)piperidine-1-carbonyl)-2-methoxyphenyl)dihydropyrimidine-2,4(1H,3H)-dione], the “BRD9 Deg Amax %” value is recorded as 10.51% and it took 29 nM to reach half-maximal degradation (DC50).
`CCCCCCn1cc(-c2cc(OC)c(CCN3CCC(OC4CCN(C(=O)c5ccc(F)c(N6CCC(=O)NC6=O)c5)CC4)CC3)c(OC)c2)c2ccncc2c1=O` [Compound E15, 1-(2-fluoro-5-(4-((1-(4-(2-hexyl-1-oxo-1,2-dihydro-2,7-naphthyridin-4-yl)-2,6-dimethoxyphenethyl)piperidin-4-yl)oxy)piperidine-1-carbonyl)phenyl)dihydropyrimidine-2,4(1H,3H)-dione]: the “BRD9 Deg Amax %” value is given as 19.85% and half-maximal degradation (DC50) was put at 17 nM.
As for `CCCCCCn1cc(-c2cc(OC)c(CCN3CCC(OC4CCN(C(=O)c5ccc(OC)c(N6CCC(=O)NC6=O)c5)CC4)CC3)c(OC)c2)c2ccncc2c1=O` [Compound E4, 1-(5-(4-((1-(4-(2-hexyl-1-oxo-1,2-dihydro-2,7-naphthyridin-4-yl)-2,6-dimethoxy-phenethyl)piperidin-4-yl)oxy)piperidine-1-carbonyl)-2-meth-oxyphenyl)dihydro-pyrimidine-2,4(1H,3H)-dione], the “BRD9 Deg Amax %” value was 19.61% and half-maximal degradation (DC50) was put at 34 nM.
For `CCCCn1cc(-c2cc(F)c(OC3CCN(CC4CCN(C(=O)c5ccc(OC)c(N6CCC(=O)NC6=O)c5)CC4)CC3)c(F)c2)c2ccncc2c1=O` [Compound E49, 1-(5-(4-((4-(4-(2-butyl-1-oxo-1,2-dihydro-2,7-naphthyridin-4-yl)-2,6-difluorophenoxy)piperidin-1-yl)methyl)piperidine-1-carbonyl)-2-methoxyphenyl)dihydropyrimidine-2,4(1H,3H)-dione], the “BRD9 Deg Amax %” value came out at 19.41% and it took 7 nM to reach half-maximal degradation (DC50).
